This is an account of results in patent US20090123545A1, “Rapid Onset and Short Term Modafinil Compositions and Methods of Use Thereof” (priority 2005, published 2009).

For data set [1] the following is noted: cited from earlier work.
Data set [2] addresses dopamine reuptake pump (Homo sapiens, UniProt Q01959). Conditions: in vitro studies; cited from earlier work.
Data set [3] relates to extracellular dopamine. The conditions noted are these: in vivo; cited from earlier work.
The test system of data set [4] is normal human volunteer. Put plainly: Double blind study of sub-lingual d-modafinil composition in a normal human volunteer. It counts as in vivo. How it is done: The test subject was given three vials: one vial containing the base formulation (as in Example 1) to test the taste and delivery means, and two coded vials. One of the coded vials contained 100 mg of d-modafinil formulation, and the second coded vial contained placebo (an equivalent amount of formulation).
The subject was instructed to place the contents of the test formulation under the tongue, to allow the formulation to dissolve over two minutes, and to rinse any residual material with some water.

Data set [5] deals with normal human volunteers. The experiment in a line: Double blind crossover study of sub-lingual d-modafinil in normal human volunteers (VAS, difficulty to fall asleep). It counts as in vivo. Details: key to Visual Analog Scale (0 to 3), difficulty to fall asleep: 0: fell asleep as usual; 1: slight, noticeable change; 2: noticeable change; 3: extreme change (kept awake most of night). The conditions noted are these: 200 mg sublingual, one hour before bedtime. How it is done: Two subjects received a set of coded vials containing either 200 mg of d-modafinil formulated according to Example 1 or an equivalent placebo formulation.
The subjects were given the following instructions:
Start testing at approximately the same time every evening, one hour before bedtime.
Randomly select one of the coded vials each day.
Open the vials and place the powder under your tongue.
Allow the powder to dissolve slowly for approximately 1-2 minutes.
After the powder is fully dissolved, you may drink some water.
Record observations in a Visual Analogue Scale (VAS) describing the difficulty to fall asleep.

For data set [6], the system named is mice. Conditions: cited from earlier work.

Structures are written as SMILES. “And” between values parts separate entries of the source, which are not always exact repeats. Equal values may be shown once. “Also recorded” adds a separate entry of the source. Read-outs that look alike come from different tables or passages of the source.

Chain of dopamine reuptake pump (Q01959 whole entry): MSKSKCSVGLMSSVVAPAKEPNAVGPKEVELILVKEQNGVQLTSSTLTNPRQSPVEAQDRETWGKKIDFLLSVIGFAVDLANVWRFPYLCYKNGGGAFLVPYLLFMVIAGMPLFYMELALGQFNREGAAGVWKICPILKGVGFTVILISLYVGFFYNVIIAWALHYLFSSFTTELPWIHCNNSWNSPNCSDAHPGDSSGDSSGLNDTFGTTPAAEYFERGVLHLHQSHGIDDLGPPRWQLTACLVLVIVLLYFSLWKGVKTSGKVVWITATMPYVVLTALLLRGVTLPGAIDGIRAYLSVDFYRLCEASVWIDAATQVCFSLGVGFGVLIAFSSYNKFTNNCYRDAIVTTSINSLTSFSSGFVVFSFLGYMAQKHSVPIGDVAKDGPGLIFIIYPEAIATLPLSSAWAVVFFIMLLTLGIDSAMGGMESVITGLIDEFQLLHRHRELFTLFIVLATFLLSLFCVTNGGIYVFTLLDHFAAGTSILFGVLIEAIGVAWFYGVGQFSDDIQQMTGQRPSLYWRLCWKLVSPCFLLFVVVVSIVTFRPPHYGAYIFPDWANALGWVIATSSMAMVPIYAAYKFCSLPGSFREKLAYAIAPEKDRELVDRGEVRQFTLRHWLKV

Turning to `NC(=O)C[S+]([O-])C(c1ccccc1)c1ccccc1` (racemic) [racemic modafinil, 2-[(diphenylmethyl)sulfinyl]acetamide], the “time to reach maximum plasma concentrations” value in data set [1] (after a single oral dose) was 2 to 4 h. In data set [1], the “half-life (T1/2) in the human body” value is recorded as “about 15 hours”. In data set [1] (ingestion of PROVIGIL tablets, humans), the “fraction of modafinil eliminated by the liver” value is at most 90%. In addition, the “effect on reuptake of dopamine” value in data set [2] is “inhibit the reuptake of dopamine”. In data set [3], the “effect on extracellular dopamine” value is “increases extracellular dopamine”. For the same molecule, the “effect on wakefulness (subject's report)” value in data set [4] (200 mg Provigil at 10 p.m., same subject about one week before, not blinded) is reported as “very pronounced effect”.
As to `NC(=O)C[S@+]([O-])C(c1ccccc1)c1ccccc1` [d-modafinil, (d)-(+)-modafinil], the “amount in the circulation compared with l-modafinil” value in data set [1] (after use of racemic modafinil) is given as “three times less”. Further, the “subject's reported observations on sleep and alertness” value in data set [5] was “took longer than usual to fall asleep; also recorded: significantly more alert”. Moreover, the “Visual Analog Scale (0 to 3), difficulty to fall asleep” value in data set [5] (Subject 1, Subject 2) is 1 and 2. For the same molecule, the “effect on wakefulness (subject's blinded report)” value in data set [4] (100 mg sublingual at 11:15 p.m., one subject) is reported as “active”. Besides, the “wakefulness effect compared with 200 mg racemic modafinil” value in data set [4] (100 mg sublingual, same subject) is “neither test substance kept them awake as strongly or as long as the 200 mg racemic modafinil”. In addition, in data set [6], the “pharmacological activity compared with the modafinil racemic compound” value is recorded as “same pharmacological activity”.
On to `NC(=O)C[S@@+]([O-])C(c1ccccc1)c1ccccc1` [l-modafinil], for which the figures for the “half-life (T1/2) in the human body” value in data set [1] and in data set [1] (listed as 1-modafinil) were 10 to 14 h and 13 to 16 h, respectively. Moreover, in data set [6], the “pharmacological activity compared with the modafinil racemic compound” value is recorded as “same pharmacological activity”.
